Assay results reported in PMC12494831, “Discovery of new pyridine 3-carboxylic acid-based pharmacophores as dual anti-inflammatory and anti-hyperglycemic agents” (Scientific Reports, 2025).

Key:
α-amylase (EC.3.2.1.1) = biological target: T1, α-amylase (EC.3.2.1.1) (Homo sapiens, UniProt P04746); experiment: In vitro α-amylase inhibition (starch/DNS, 540 nm); format: biochemical; settings: for IC50: test concentrations 2-10 µg, read-out: α-Amylase IC50±SD (converted)
T1 sequence (P04746 16-511): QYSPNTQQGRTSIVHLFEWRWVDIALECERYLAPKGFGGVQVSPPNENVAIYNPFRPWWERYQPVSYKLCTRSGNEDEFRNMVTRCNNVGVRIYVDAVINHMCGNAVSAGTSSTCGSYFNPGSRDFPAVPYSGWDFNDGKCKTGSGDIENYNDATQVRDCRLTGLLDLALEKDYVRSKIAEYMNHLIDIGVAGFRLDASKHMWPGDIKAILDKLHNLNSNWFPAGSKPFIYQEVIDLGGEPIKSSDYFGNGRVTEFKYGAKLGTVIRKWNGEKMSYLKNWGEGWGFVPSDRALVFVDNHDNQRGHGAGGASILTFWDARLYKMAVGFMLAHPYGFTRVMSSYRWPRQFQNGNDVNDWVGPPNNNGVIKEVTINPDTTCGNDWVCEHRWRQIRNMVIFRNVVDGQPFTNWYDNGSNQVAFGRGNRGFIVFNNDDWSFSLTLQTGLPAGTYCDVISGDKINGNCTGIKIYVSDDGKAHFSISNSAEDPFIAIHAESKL
Method: α-Amylase enzyme and other chemical reagents are used for enzyme inhibitory activity. The characterized compounds are diluted in an analytical grad solvent (DMSO) system at 1 mg/mL solution concentration. The activity reaction of the synthesized analogues on the enzyme was treated at final concentrations of 2 to 10 µg. In the interaction between enzyme and compounds, 10 min incubation was maintained before the inhibitory activity started. The enzyme-receptor inhibition efficiency was calculated and compared with the positive control.
Sodium phosphate buffer 0.2 mM (pH 6.9 with 6 × 10^− 4 M NaCl) in 500 µL enzyme solution (0.5 mg/mL) was taken and incubated with test samples (2–10 µg/mL) at room temperature for 10 min. A starch (1%) solution of 500 µL with phosphate buffer was added to all test inhibitor samples; further, the tubes were incubated for 10 min at 28 °C. The reaction test tubes were incubated for another 5 min in the water bath (100 °C) after the addition of the color reagent dinitro salicylic acid and cooled at room temperature until reached. Finally, 10 mL of distilled water was mixed with each test tube, and the colored mixture was measured at a fixed wavelength of 540 nm. The absorbance without sample solution (blank) and control (buffer and standard drug sample) was measured at 540 nm. The α-amylase inhibition efficiency was validated using the following equation:2 [drawing 2]

[1] = ABTS cation radical scavenging (734 nm); settings: for IC50: read-out: ABTS IC50±SD
Method: (§1) The experimental method principle relies on the degradation of the purple color of the DPPH radical and the blue color reduction of the ABTS cation radical. This is due to consuming the electron or hydrogen radical from the antioxidant (A-H). Both assays were measured at 517 nm and 734 nm, respectively. The distinction of color changes illustrates the potential scavenging activity of the inhibitor molecules in terms of hydrogen-donating proficiency. From this, we can conclude the anti-oxidant efficacy.
In brief, 7.0 mM ABTS in H2O and 2.5 mM potassium persulfate (1:1) were shaken well to generate ABTS cation radicals and kept in the dark at RT for 15–20 h before it is used for the experiment. After, the radical was mixed with the synthesized molecules at different concentrations (20 µM to 100 µM). The resultant solution was measured for absorbance at 734 nm. Ascorbic acid is the positive control for this experiment.1 [drawing 1]

human RBC = experiment: Anti-inflammatory activity: hypotonic solution-induced human RBC hemolysis (560 nm); format: cell-based; settings: for IC50: induced human RBC hemolysis, read-out: Inflammatory IC50±SD
Method: All synthesized compounds are validated in human RBC (blood sample); the blood sample was collected from a healthy volunteer in an EDTA tube. The EDTA tube further proceeded with centrifugation at 3000 rpm for 30 min. A supernatant (which contains plasma and leucocytes) solution was isolated, and the obtained RBC (red blood cells) was further treated with Alsever’s reagent. Alsever’s reagent was prepared as follows: sodium citrate (0.8 g, 2.6 mmol), dextrose (2 g, 11.0 mmol), citric acid (0.050 g, […]), and sodium chloride (0.42 g, 7.0 mmol) were solubilized in 100 mL of distilled water. The above mixture was centrifuged for 30 min at 3000 rpm. Then, colloidal blood cells were separated, carefully transferred, and washed with 0.85% of the isosaline solution; this process continued until a clear solution appeared. Employing coagulated RBC and generated human erythrocyte hemolysis, the anti-inflammatory activity and potential of the synthesized entities were evaluated. The tested compounds are prepared at different concentrations for the inhibition activity of inflammation, along with 100 µL of a purified RBC sample utilized. All characterized samples were followed by adding 5.0 mL of trisodium phosphate (10 mM) and 5.0 mL of sodium chloride (5.0 mM) buffer solutions. After the addition of the above mixtures, the test samples are incubated for 15 min at room temperature with RBC and hypotonic mixtures. After incubation, the mixture was centrifuged at 3000 rpm for 15 min. The final supernatant liquid solution was measured at 560 nm using a UV-visible spectrophotometer.3 [drawing 3]

[2] = DPPH radical scavenging (517 nm); settings: for IC50: read-out: DPPH IC50±SD
Method: as §1
Methanolic DPPH solution (0.15 mM) was prepared, and 1.0 mL of DPPH solution was mixed with 3.0 mL of synthesized molecules at different concentrations (20 µM to 100 µM). The mixture was constantly swirled and stored RT for 30 min, followed by absorbance measurement at 517 nm.

Row | SMILES | α-Amylase Inhibition % (α-amylase (EC.3.2.1.1); 2 µg) | α-Amylase Inhibition % (α-amylase (EC.3.2.1.1); 4 µg) | α-Amylase Inhibition % (α-amylase (EC.3.2.1.1); 6 µg) | α-Amylase Inhibition % (α-amylase (EC.3.2.1.1); 8 µg) | α-Amylase Inhibition % (α-amylase (EC.3.2.1.1); 10 µg) | IC50 (α-amylase (EC.3.2.1.1)) | ABTS Inhibition % ([1]; 20 µM) | ABTS Inhibition % ([1]; 40 µM) | ABTS Inhibition % ([1]; 60 µM) | ABTS Inhibition % ([1]; 80 µM) | ABTS Inhibition % ([1]; 100 µM) | IC50 [1] | inhibition at 20 µM (human RBC) | inhibition at 40 µM (human RBC) | inhibition at 60 µM (human RBC) | inhibition at 80 µM (human RBC) | inhibition at 100 µM (human RBC) | IC50 (human RBC) | DPPH Inhibition % ([2]; 20 µM) | DPPH Inhibition % ([2]; 40 µM) | also measured
1 | O=C(Oc1ccc2c(c1)OCO2)c1cccnc1 [Compound 2h, Benzo[1,3]dioxol-5-yl nicotinate] | 74.08% | 73.2% | 72.47% | 70.57% | 70.13% | 6.23 µM | 69% | 71% | 72% | 72.9% | 76.7% | 16.4 ± 0.25 µM | 52% | 63% | 64.7% | 65% | 70% | 21.7 ± 0.24 µM | 84.5% | 85.8% | DPPH Inhibition % ([2]; 60 µM): 86.8%; DPPH Inhibition % ([2]; 80 µM): 87.2%; DPPH Inhibition % ([2]; 100 µM): 87.68%; IC50 [2]: 12.9 ± 0.19 µM
2 | COc1cc(C(C)=O)ccc1OC(=O)c1cccnc1 [Compound 2i, 4-Acetyl-2-methoxyphenyl nicotinate] | 77.74% | 76.42% | 74.67% | 71.01% | 70.86% | 5.25 µM | 41.6% | 44.7% | 49.5% | 53.9% | 60.4% | 38.43 ± 0.21 µM | 17.6% | 25.3% | 47% | 58% | 70% | 66.97 ± 0.28 µM | 8.89% | 33.34% | DPPH Inhibition % ([2]; 60 µM): 40.65%; DPPH Inhibition % ([2]; 80 µM): 49.83%; DPPH Inhibition % ([2]; 100 µM): 52.22%; IC50 [2]: 99.62 ± 0.15 µM
3 | O=C(Nc1ccc2c(c1)OCO2)c1cccnc1 [Compound 2j, N-(Benzo[1,3]dioxol-5-yl)nicotinamide] | 85.94% | 75.4% | 74.67% | 68.96% | 57.1% | 5.47 µM | 28.3% | 39% | 42.4% | 45% | 47.9% | 57.25 ± 0.11 µM | 59% | 68% | 75% | 92.7% | 93% | 20.3 ± 0.22 µM | 34.8% | 37.7% | DPPH Inhibition % ([2]; 60 µM): 43.7%; DPPH Inhibition % ([2]; 80 µM): 46%; DPPH Inhibition % ([2]; 100 µM): 50.1%; IC50 [2]: 97.62 ± 0.24 µM
4 | CCOc1ccc2nc(NC(=O)c3cccnc3)sc2c1 [Compound 2k, N-(6-ethoxybenzothiazol-2-yl) nicotinamide] | 74.81% | 74.52% | 69.98% | 69.69% | 55.63% | 5.06 µM | 37.6% | 41.8% | 46.3% | 47.9% | 55.8% | 88.03 ± 0.17 µM | 48.6% | 55% | 66.8% | 74.5% | 87.5% | 25.86 ± 0.23 µM | 8.89% | 33.34% | DPPH Inhibition % ([2]; 60 µM): 40.65%; DPPH Inhibition % ([2]; 80 µM): 49.83%; DPPH Inhibition % ([2]; 100 µM): 52.31%; IC50 [2]: 79.62 ± 0.14 µM
